Assay results taken from paper PMC8122397, “Synthesis of New Triazolopyrazine Antimalarial Compounds” (Molecules, 2021).
Like-named read-outs stand apart in the source and are kept apart here.

Columns and labels:
[1] = test system: Plasmodium falciparum Dd2 (chloroquine, pyrimethamine, and mefloquine drug-resistant strain); assay: In vitro anti-plasmodial image-based asexual assay, Dd2 strain; type: cell-based; conditions: for Dd2 potency compared to the 3D7 results, in words: Dd2 versus 3D7; for IC50 / inhibition at 80 µM: Plasmodium falciparum, Dd2 strain; for IC50: 72 h; for inhibition at 80 µM: top dose of 80 µM, read-out: Pf Dd2 inhibition at the top dose
Method: (§1) The semisynthesized/functionalized triazolopyrazine compounds and the scaffold triazolopyrazine precursors, compounds 1–18, were tested for their antimalarial activity against the 3D7 (chloroquine-sensitive strain) and Dd2 (chloroquine, pyrimethamine, and mefloquine resistant strain) P. falciparum. Where an accurate IC50 value could not be determined due to 100% growth inhibition and a plateau not being reached, but where ≥90% growth inhibition was attained at the top screening concentration, an estimated IC50 value was calculated.
(§2) Plsamodium falciparum 3D7 and Dd2 parasites were cultured in RPMI1640 (Life Technologies, Camarillo, CA, USA) supplemented with 2.5 mg/mL Albumax II, 5% AB human serum, 25 mM HEPES, and 0.37mM hypoxanthine. Ring stage parasites were treated with compounds following two rounds of sorbitol synchronization, as previously described. Artesunate and pyrimethamine were incorporated as controls. Following incubation of assay plates for 72 h at 37 °C, and 5% CO2 and 5% O2, parasites were stained with 2-(4-amidinophenyl)-1H-indole-6-carboxamidine (DAPI) and imaged using an Opera QEHS confocal imaging system (PerkinElmer, Waltham, MA, USA). Images were analyzed, as previously described, using Acapella spot detection software (PerkinElmer, Waltham, MA, USA).
(§3) Normalizing of raw data used the in-plate positive (5 μM puromycin 100% inhibition) and negative (0.4% DMSO–no inhibition) controls to obtain percent inhibition and then used to calculate IC50 values through a 4 parameter logistic curve fitting in GraphPad Prism v.6.

[2] = test system: Plasmodium falciparum 3D7 (chloroquine-sensitive strain); assay: In vitro anti-plasmodial image-based asexual assay, 3D7 strain; type: cell-based; conditions: for IC50 / inhibition at 80 µM: 3D7 strain; for IC50: 72 h; for inhibition at 80 µM: top dose of 80 µM, read-out: Pf 3D7 inhibition at the top dose
Method: as §1, §2, §3

Pf 3D7 = conditions: cited from earlier work
[3] = test system: Plasmodium falciparum (Pf); set-up: method as in earlier work; conditions: OSM master compounds' list; read-out: Pf activity IC50, previously reported OSM data; cited from earlier work
[4] = Plasmodium falciparum, 3D7, 72 h, read-out: Pf 3D7 IC50 ± SD
[5] = Plasmodium falciparum, 3D7, 72 h, estimated IC50 as only ~90% inhibition reached at the top dose of 80 µM, read-out: Pf 3D7 IC50 ± SD (estimated, footnote d)
[6] = estimated IC50 as only ~90% inhibition reached at the top dose of 80 µM, read-out: Pf 3D7 IC50 ± SD (estimated, footnote d)
[7] = in vitro, read-out: IC50 (Pf 3D7), Figure 1
[8] = Plasmodium falciparum, 3D7, 72 h, controls, read-out: Pf 3D7 IC50 ± SD (controls)
[9] = controls, read-out: Pf Dd2 IC50 ± SD (controls)

**Q.** With `Cc1ncc(Cl)n2c(-c3ccc(OC(F)F)cc3)nnc12` [Compound 11, 5-Chloro-3-[(4-difluoromethoxy)phenyl]-8-methyl-[1,2,4]triazolo[4,3-α]pyrazine] as the compound, how does the “Dd2 potency compared to the 3D7 results, in words” value [1] read?
**A.** large decreases in potency

**Q.** And the IC50 ([1]; read-out: Pf Dd2 IC50 ± SD)?
**A.** 31.2 ± 0.82 µM

**Q.** And the IC50 ([2]; read-out: Pf 3D7 IC50 ± SD)?
**A.** 12.5 ± 0.58 µM

**Q.** What about the IC50 [2, 4] of the same compound?
**A.** 12.5 µM

**Q.** Which IC50 ([1]; read-out: Pf Dd2 IC50 ± SD) does the source give for `Cc1ncc(Cl)n2c(-c3ccc(C#N)cc3)nnc12` [Compound 10, 4-(5-Chloro-8-methyl-1,2,4-triazolo[4,3-α]pyrazin-3-yl)benzonitrile] here?
**A.** 38.2 ± 0.61 µM

**Q.** What about the IC50 [2, 5] of the same compound?
**A.** 27.3 ± 0.82 µM

**Q.** Which results are given for `Cc1ncc(OCC(F)(F)F)n2c(-c3ccc(OC(F)F)cc3)nnc12` [Compound 12, 3-[4-(Difluoromethoxy)phenyl]-8-methyl-5-(2,2,2-trifluoroethoxy)-[1,2,4]triazolo[4,3-a]pyrazine]?
**A.** Dd2 potency compared to the 3D7 results, in words [1]: large decreases in potency; inhibition at 80 µM [1]: < 41%; growth inhibition at the top screening concentration ([2]; 3D7, predicted IC50 value not calculated): < 90%

**Q.** With `Cc1ncc(OCCc2ccccc2)n2c(-c3ccc(OC(F)F)cc3)nnc12` [Compound 13, 3-[4-(Difluoromethoxy)phenyl]-8-methyl-5-(2-phenylethoxy)-[1,2,4]triazolo[4,3-a]pyrazine] as the compound, how does the “Dd2 potency compared to the 3D7 results, in words” value [1] read?
**A.** slight increase in potency

**Q.** And the IC50 ([1]; read-out: Pf Dd2 IC50 ± SD)?
**A.** 8.2 ± 0.6 µM

**Q.** What about the “fold decrease in potency on methylation” value ([2]; 3D7, compared with compound 2) of the same compound?
**A.** 37 fold

**Q.** What about the IC50 [2, 6] of the same compound?
**A.** 11 ± 0.56 µM

**Q.** What about the IC50 [2, 5] of the same compound?
**A.** 11.1 µM

**Q.** With `Clc1ccc(-c2nnc3cncc(Cl)n23)cc1` [Compound 7] as the compound, how does the IC50 ([1]; read-out: Pf Dd2 IC50 ± SD) read?
**A.** 14.3 ± 0.62 µM

**Q.** And the IC50 [2, 4]?
**A.** 12.6 µM

**Q.** For `OC(COc1cncc2nnc(-c3ccc(OC(F)F)cc3)n12)c1ccc(F)c(F)c1` (stereo not shown) [OSM-S-390], which IC50 (Pf 3D7; [7]) is on record?
**A.** 0.07 µM

**Q.** What does the source list for `CC(F)(F)c1nccn2c(-c3ccc(Cl)cc3)nnc12` [Compound 16, 3-(4-Chlorophenyl)-8-(1,1-difluoroethyl)-[1,2,4]triazolo[4,3-a]pyrazine]?
**A.** Dd2 potency compared to the 3D7 results, in words [1]: large decreases in potency; IC50 ([1]; read-out: Pf Dd2 IC50 ± SD): 24.7 ± 0.15 µM; IC50 [2, 4]: 6.4 ± 0.1 µM

**Q.** For `Oc1nccn2c(-c3ccc(OC(F)F)cc3)nnc12` [Compound 4, 3-[4-(Difluoromethoxy)phenyl]-[1,2,4]triazolo[4,3-α]pyrazin-8-ol], which inhibition at 80 µM ([2]; Plasmodium falciparum) is on record?
**A.** < 41%

**Q.** Which IC50 ([1]; read-out: Pf Dd2 IC50 ± SD) does the source give for `FC(F)Oc1ccc(-c2nnc3cncc(Cl)n23)cc1` [Compound 1] here?
**A.** 22.8 ± 13.7 µM

**Q.** And the IC50 [2, 6]?
**A.** 16.8 ± 1.25 µM

**Q.** And the IC50 [2, 5]?
**A.** 16.8 µM

**Q.** Which melting point does the source give for `FC1(F)CCC(c2nccn3c(-c4ccc(Cl)cc4)nnc23)CC1` [Compound 18, 3-(4-Chlorophenyl)-8-(4,4-difluorocyclohexyl)-[1,2,4]triazolo[4,3-a]pyrazine] here?
**A.** 203 to 205 °C

**Q.** And the “antimalarial activity in words” value ([2]; 3D7)?
**A.** limited activity

**Q.** What about the inhibition at 80 µM ([2]; Plasmodium falciparum) of the same compound?
**A.** < 41%

**Q.** For `C[Si](C)(C)CCOc1nccn2c(-c3ccc(OC(F)F)cc3)nnc12` [Compound 6, 3-[4-(Difluoromethoxy)phenyl]-8-[2-(trimethylsilyl)ethoxy)-[1,2,4]triazolo[4,3-α]pyrazine], which inhibition at 80 µM ([2]; Plasmodium falciparum) is on record?
**A.** < 41%

**Q.** With `Fc1ccc([C@@H](COc2cncc3nnc(-c4ccc(OC(F)F)cc4)n23)OC(F)F)cc1F` [OSM-S-377] as the compound, how does the IC50 (Pf 3D7; [7]) read?
**A.** 0.016 µM

**Q.** With `N#Cc1ccc(-c2nnc3cncc(Cl)n23)cc1` [Compound 9] as the compound, how does the IC50 ([1]; read-out: Pf Dd2 IC50 ± SD) read?
**A.** 25.9 ± 0.74 µM

**Q.** And the IC50 [2, 6]?
**A.** 18.9 ± 0.66 µM

**Q.** And the IC50 [2, 5]?
**A.** 18.9 µM

**Q.** Which “Dd2 potency compared to the 3D7 results, in words” value [1] does the source give for `FC1(F)CCC(c2ncc(Cl)n3c(-c4ccc(Cl)cc4)nnc23)CC1` [Compound 17, 5-Chloro-3-(4-chlorophenyl)-8-(4,4-difluorocyclohexyl)-[1,2,4]triazolo[4,3-a]pyrazine] here?
**A.** large decreases in potency

**Q.** And the inhibition at 80 µM [1]?
**A.** < 41%

**Q.** And the “antimalarial activity in words” value ([2]; 3D7)?
**A.** limited activity

**Q.** And the IC50 [2, 5]?
**A.** 20.2 ± 2.86 µM

**Q.** Which inhibition at 80 µM [1] does the source give for `CCc1nc(N)nc(N)c1-c1ccc(Cl)cc1` [Pyrimethamine, reference compound] here?
**A.** < 41%

**Q.** And the IC50 [2, 8]?
**A.** 0.01208 ± 4e-05 µM

**Q.** Which results are given for `C[C@H]1[C@H](OC(=O)CCC(=O)O)O[C@@H]2O[C@@]3(C)CC[C@H]4[C@H](C)CC[C@@H]1[C@@]24OO3` [Artesunate, reference compound]?
**A.** IC50 [1, 9]: 0.002 ± 0.0001 µM; IC50 [2, 8]: 0.00348 ± 0.00014 µM

**Q.** For `FC(F)Oc1ccc(-c2nnc3cncc(OCCc4ccccc4)n23)cc1` [Compound 2, 3-[4-(Difluoromethoxy)phenyl]-5-(2-phenylethoxy)-[1,2,4]triazolo[4,3-α]pyrazine], which IC50 (Pf 3D7; [7]) is on record?
**A.** 0.3 µM

**Q.** And the IC50 (Pf 3D7; read-out: IC50 against Pf 3D7, previously reported)?
**A.** 0.301 µM

**Q.** What about the IC50 ([1]; read-out: Pf Dd2 IC50 ± SD) of the same compound?
**A.** 0.54 ± 0.02 µM

**Q.** What about the IC50 ([2]; read-out: Pf 3D7 IC50 ± SD) of the same compound?
**A.** 0.31 ± 0.01 µM

**Q.** What about the IC50 [2, 4] of the same compound?
**A.** 0.3 µM

**Q.** Which results are given for `COc1ccc(C[C@H](N)C(=O)N[C@H]2[C@@H](O)[C@H](n3cnc4c(N(C)C)ncnc43)O[C@@H]2CO)cc1` [Puromycin, reference compound]?
**A.** IC50 [1, 9]: 0.101 ± 0.0028 µM; IC50 [2, 8]: 0.0953 ± 0.00145 µM

**Q.** With `CC(F)(F)c1ncc(Cl)n2c(-c3ccc(Cl)cc3)nnc12` [Compound 15, 5-Chloro-3-(4-chlorophenyl)-8-(1,1-difluoroethyl)-[1,2,4]triazolo[4,3-a]pyrazine] as the compound, how does the IC50 ([1]; read-out: Pf Dd2 IC50 ± SD) read?
**A.** 2.58 ± 0.07 µM

**Q.** And the “fold improvement in potency compared to the parent scaffold” value ([2]; 3D7, compared with scaffold 7)?
**A.** 7.3 fold

**Q.** What about the IC50 ([2]; read-out: Pf 3D7 IC50 ± SD) of the same compound?
**A.** 1.72 ± 0.02 µM

**Q.** And the IC50 [2, 4]?
**A.** 1.7 µM

**Q.** Which melting point does the source give for `FC(F)Oc1ccc(-c2nnc3cncc(OCC(F)(F)F)n23)cc1` [Compound 3, 3-[(4-Difluoromethoxy)phenyl]-5-(2,2,2,-trifluroethoxy)-[1,2,4]triazolo[4,3-α]pyrazine] here?
**A.** 169 to 170 °C

**Q.** What about the IC50 ([1]; read-out: Pf Dd2 IC50 ± SD) of the same compound?
**A.** 21.2 ± 5.41 µM

**Q.** What about the IC50 [3] of the same compound?
**A.** 10 µM

**Q.** And the IC50 ([2]; read-out: Pf 3D7 IC50 ± SD)?
**A.** 16.6 ± 1.02 µM

**Q.** What about the IC50 [2, 4] of the same compound?
**A.** 16.7 µM

**Q.** With `OCC(COc1cncc2nnc(-c3ccc(OC(F)F)cc3)n12)c1ccccc1` (stereo not shown) [OSM-LO-13] as the compound, how does the IC50 (Pf 3D7; [7]) read?
**A.** 0.279 µM

**Q.** Which results are given for `FC(F)(F)c1ncc(Cl)n2c(-c3ccc(Cl)cc3)nnc12` [Compound 14, 5-Chloro-3-(4-chlorophenyl)-8-(trifluoromethyl)-[1,2,4]triazolo[4,3-α]pyrazine]?
**A.** IC50 ([1]; read-out: Pf Dd2 IC50 ± SD): 6.18 ± 0.09 µM; IC50 [2, 4]: 4.84 ± 0.13 µM

**Q.** For `Cc1ncc(Cl)n2c(-c3ccc(Cl)cc3)nnc12` [Compound 8, 5-Chloro-3-(4-chlorophenyl)-8-methyl-[1,2,4]triazolo[4,3-α]pyrazine], which IC50 ([1]; read-out: Pf Dd2 IC50 ± SD) is on record?
**A.** 32.4 ± 1.44 µM

**Q.** What about the IC50 [2, 5] of the same compound?
**A.** 19.2 ± 0.28 µM

**Q.** For `C[Si](C)(C)CCOc1cncc2nnc(-c3ccc(OC(F)F)cc3)n12` [Compound 5], which melting point is on record?
**A.** 135 °C

**Q.** What about the “Dd2 potency compared to the 3D7 results, in words” value [1] of the same compound?
**A.** large decreases in potency

**Q.** And the IC50 [2, 4]?
**A.** 13.9 ± 0.87 µM
